Reference: ChEMBL document CHEMBL5321290, “Discovery of the Diphenyl 6-Oxo-1,6-dihydropyridazine-3-carboxylate/carboxamide Analogue J27 for the Treatment of Acute Lung Injury and Sepsis by Targeting JNK2 and Inhibiting the JNK2-NF-κB/MAPK Pathway” (J Med Chem, 2023)
Active and inactive are the calls of the source. No cut-off for these calls is given here.

Tests used:
[1] = biological target: T1, Inhibitor of nuclear factor kappa-B kinase subunit beta (Homo sapiens) (UniProt O14920); test: Inhibition of IKKbeta (unknown origin) assessed as inhibition rate at 10 uM by SPR analysis relative to control
T1 sequence (whole entry): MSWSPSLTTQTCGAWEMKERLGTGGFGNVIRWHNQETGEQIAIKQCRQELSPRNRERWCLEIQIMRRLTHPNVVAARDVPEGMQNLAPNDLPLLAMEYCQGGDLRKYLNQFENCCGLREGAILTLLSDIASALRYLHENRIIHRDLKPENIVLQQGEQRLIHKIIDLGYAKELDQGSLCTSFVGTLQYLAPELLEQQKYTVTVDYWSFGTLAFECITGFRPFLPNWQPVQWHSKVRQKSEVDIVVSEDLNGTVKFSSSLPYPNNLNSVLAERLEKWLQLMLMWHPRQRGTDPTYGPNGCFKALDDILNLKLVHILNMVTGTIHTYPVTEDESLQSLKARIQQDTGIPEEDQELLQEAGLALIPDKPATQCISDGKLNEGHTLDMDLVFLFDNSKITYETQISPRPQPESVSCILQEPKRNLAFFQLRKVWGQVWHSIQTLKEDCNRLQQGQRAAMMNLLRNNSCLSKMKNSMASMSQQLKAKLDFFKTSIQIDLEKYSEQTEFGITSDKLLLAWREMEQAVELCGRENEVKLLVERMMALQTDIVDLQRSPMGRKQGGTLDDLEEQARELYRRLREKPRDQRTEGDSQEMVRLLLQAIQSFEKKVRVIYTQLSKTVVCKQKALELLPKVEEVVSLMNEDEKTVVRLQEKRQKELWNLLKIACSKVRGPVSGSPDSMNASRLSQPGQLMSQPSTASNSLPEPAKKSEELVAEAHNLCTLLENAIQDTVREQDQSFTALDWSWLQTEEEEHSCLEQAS

[2] = biological target: Mitogen-activated protein kinase 9 (Homo sapiens, UniProt P45984); test: Inhibition of JNK2 (unknown origin) assessed as inhibition rate at 10 uM by SPR analysis relative to control
Chain of Mitogen-activated protein kinase 9 (P45984 whole entry, looked up): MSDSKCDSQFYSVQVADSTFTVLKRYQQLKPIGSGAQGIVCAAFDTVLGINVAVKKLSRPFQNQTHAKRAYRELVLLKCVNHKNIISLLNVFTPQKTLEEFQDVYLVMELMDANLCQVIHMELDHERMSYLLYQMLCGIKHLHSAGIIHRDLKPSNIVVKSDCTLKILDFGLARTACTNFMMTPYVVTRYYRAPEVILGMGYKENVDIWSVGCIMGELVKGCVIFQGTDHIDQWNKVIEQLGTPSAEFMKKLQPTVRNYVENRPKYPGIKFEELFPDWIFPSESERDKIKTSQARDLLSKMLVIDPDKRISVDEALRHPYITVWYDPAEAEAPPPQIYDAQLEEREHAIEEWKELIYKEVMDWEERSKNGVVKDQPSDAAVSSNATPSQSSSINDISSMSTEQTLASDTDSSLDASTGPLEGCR

[3] = biological target: T2, Mitogen-activated protein kinase kinase kinase 7 (Homo sapiens) (UniProt O43318); test: Inhibition of TAK1 (unknown origin) assessed as inhibition rate at 10 uM by SPR analysis relative to control
T2 sequence (whole entry): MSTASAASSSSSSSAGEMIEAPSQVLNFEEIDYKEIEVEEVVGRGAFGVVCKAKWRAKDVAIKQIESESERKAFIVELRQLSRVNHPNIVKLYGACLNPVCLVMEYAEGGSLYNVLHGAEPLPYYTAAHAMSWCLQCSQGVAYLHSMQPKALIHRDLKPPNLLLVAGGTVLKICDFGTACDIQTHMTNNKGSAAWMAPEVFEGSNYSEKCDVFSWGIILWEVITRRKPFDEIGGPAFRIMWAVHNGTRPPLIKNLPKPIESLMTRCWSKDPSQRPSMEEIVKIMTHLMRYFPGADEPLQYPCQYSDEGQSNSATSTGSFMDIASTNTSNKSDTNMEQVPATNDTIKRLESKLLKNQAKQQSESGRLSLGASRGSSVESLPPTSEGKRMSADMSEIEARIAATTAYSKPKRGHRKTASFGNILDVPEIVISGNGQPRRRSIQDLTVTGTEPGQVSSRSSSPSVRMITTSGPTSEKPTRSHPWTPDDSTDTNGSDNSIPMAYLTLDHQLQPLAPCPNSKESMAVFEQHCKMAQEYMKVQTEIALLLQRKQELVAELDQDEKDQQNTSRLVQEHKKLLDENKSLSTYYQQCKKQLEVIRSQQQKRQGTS

[4] = Subacute toxicity in ICR mouse assessed as pathological change in lung at 500 to 100 mg/kg, IG measured for 10 days by hematoxylin and eosin dye based light microscopy; format: organism-based; conditions: in vivo, po, 240 h, dose 500-100 mg/kg, time 10 day
[5] = test system: Mus musculus; test: Antiinflammatory activity against LPS-induced acute lung injury C57 mouse model assessed as decrease in LPS-induced total cell count in broncho alveolar lavage fluid at 20 mg/kg, po thrice at 12 hrs interval; format: functional, organism-based; conditions: Bronchoalveolar lavage
[6] = AUC (0 to t) in Sprague-Dawley rat at 10 mg/kg, iv measured upto 24 hrs by UPLC-MS/MS analysis; format: ADME, organism-based; set-up: dose 10 mg/kg, time < 24 hrs, route iv; conditions: in vivo
[7] = biological target: Mitogen-activated protein kinase 9 (Mus musculus) (UniProt Q9WTU6); test: Binding affinity to JNK2 in protein lysate of LPS-stimulated mouse J774A.1 cells assessed as protein degradation in presence of pronase at 10 to 40 uM measured after overnight incubation by immunoblotting based drug affinity responsive target stability (DARTS) assay; format: subcellular; conditions: J774.1, dose 10-40 µM
Chain of Mitogen-activated protein kinase 9 (Mus musculus) (Q9WTU6 whole entry): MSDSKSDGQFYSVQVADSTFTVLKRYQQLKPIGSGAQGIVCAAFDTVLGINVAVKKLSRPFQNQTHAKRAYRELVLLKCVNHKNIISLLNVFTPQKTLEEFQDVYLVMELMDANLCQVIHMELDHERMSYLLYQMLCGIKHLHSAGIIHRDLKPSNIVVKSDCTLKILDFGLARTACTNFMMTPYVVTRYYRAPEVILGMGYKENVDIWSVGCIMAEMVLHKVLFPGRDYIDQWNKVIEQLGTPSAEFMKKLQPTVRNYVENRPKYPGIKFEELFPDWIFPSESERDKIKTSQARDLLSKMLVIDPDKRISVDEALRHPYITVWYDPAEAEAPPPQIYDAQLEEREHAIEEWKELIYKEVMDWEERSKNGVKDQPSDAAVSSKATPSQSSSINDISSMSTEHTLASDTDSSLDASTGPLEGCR

[8] = test system: Mus musculus; test: Antiinflammatory activity against LPS-induced acute lung injury C57 mouse model assessed as decrease in LPS-induced protein concentration in broncho alveolar lavage fluid at 20 mg/kg, po thrice at 12 hrs interval; format: functional, organism-based; conditions: Bronchoalveolar lavage
[9] = Subacute toxicity in ICR mouse assessed as pathological change in liver at 500 to 100 mg/kg, IG measured for 10 days by hematoxylin and eosin dye based light microscopy; format: organism-based; conditions: in vivo, po, 240 h, dose 500-100 mg/kg, time 10 day
[10] = test system: Mus musculus; test: Antiinflammatory activity against LPS-induced acute lung injury C57 mouse model assessed as improvement in alveolar structure at 20 mg/kg, po thrice at 12 hrs interval by hematoxylin and eosin dye based light microscopy; format: functional, organism-based; conditions: time 36.0 hrs
[11] = test system: THP-1; test: Antiinflammatory activity against human THP-1 cells assessed as inhibition of LPS-stimulated TNFalpha mRNA expression pretreated for 2 hrs followed by stimulated with LPS by RT-qPCR analysis; format: functional, cell-based; conditions: dose 2.5-10 µM
[12] = test system: THP-1; test: Antiinflammatory activity against human THP-1 cells assessed as inhibition of LPS-stimulated IL6 mRNA expression pretreated for 2 hrs followed by stimulated with LPS by RT-qPCR analysis; format: functional, cell-based; conditions: dose 2.5-10 µM
[13] = test system: THP-1; test: Antiinflammatory activity against human THP-1 cells assessed as inhibition of LPS-stimulated IL6 release measured after 30 mins by ELISA; format: functional, cell-based; conditions: THP-1, 0.5 h
[14] = test system: Mus musculus; test: Antiinflammatory activity against LPS-induced acute lung injury C57 mouse model assessed as decrease in LPS-induced TNFalpha level in blood at 20 mg/kg, po thrice at 12 hrs interval; format: functional, organism-based
[15] = Oral bioavailability n Sprague-Dawley rat at 10 mg/kg measured upto 24 hrs by UPLC-MS/MS analysis; format: ADME, organism-based; conditions: in vivo

COc1cc2nccc(Oc3ccc(NC(=O)c4nn(-c5ccc(C)cc5)c(=O)cc4C)cc3)c2cc1OC
inhibition [1]: -3.77% | inhibition [2]: 64.8% | inhibition [3]: 8.85% | Activity [4]: Non-Toxic | Activity [5]: inactive | AUCt [6]: 2995.673 ng·h/mL | Activity [7]: inactive | Activity [8]: inactive | Activity [9]: Non-Toxic | Activity [10]: inactive | Activity [11]: Dose-Dependent Effect | Activity [12]: Dose-Dependent Effect | IC50 [13]: 220 nM | Activity [14]: Active | F [15]: 30.74%
